Data taken from US6706739B2, “Imidazolidinone compounds” (National Health Research Institute, priority 2001, dated 2004).
Like-named read-outs stand apart in the source and are kept apart here.

How the values were obtained:
Assay type in all cases: cell-based
enterovirus 71 = experiment: Plaque reduction assay, enterovirus 71
coxsackievirus A24 = experiment: Plaque reduction assay, coxsackievirus A24
coxsackievirus A9 = experiment: Plaque reduction assay, coxsackievirus A9
[1] = plaque reduction assay, vero cells, 35° C., 96 hours

O=C1N(CCCCCCOc2ccc(C(F)(F)F)cc2)CCN1c1cccnc1 [Compound 42, 1-(3-pyridyl)-3-(6-[4-(trifluoromethyl)phenoxy]hexyl)-2-imidazolidinone]
showed antiviral activity: antiviral activity against enteroviruses, in particular enterovirus 71 (enterovirus 71; [1]) | antiviral activity against enteroviruses, in particular coxsackievirus A24 (coxsackievirus A24; [1]) | antiviral activity against enteroviruses, in particular coxsackievirus A9 (coxsackievirus A9; [1])

O=C1N(CCCCCOc2ccc(-c3ccc(Cl)cc3)cc2)CCN1c1ccncc1 [Compound 73, 1-[6-(4-(4′-chloro)biphenyl-4-yloxy)pentyl]-3-pyridin-4-yl-imidazolidin-2-one]
showed antiviral activity: antiviral activity against enteroviruses, in particular enterovirus 71 (enterovirus 71) | antiviral activity against enteroviruses, in particular coxsackievirus A24 (coxsackievirus A24) | antiviral activity against enteroviruses, in particular coxsackievirus A9 (coxsackievirus A9)

O=C1N(CCCCCCOc2ccc(I)cc2)CCN1c1ccncc1 [Compound 61, 1-[6-(4-iodophenoxy)hexyl]-3-(4-pyridyl)-2-imidazolidinone]
showed antiviral activity: antiviral activity against enteroviruses, in particular enterovirus 71 (enterovirus 71; [1]) | antiviral activity against enteroviruses, in particular coxsackievirus A24 (coxsackievirus A24; [1]) | antiviral activity against enteroviruses, in particular coxsackievirus A9 (coxsackievirus A9; [1])

CC1CN(CCCCCCOc2ccc(Cl)cc2)C(=O)N1c1ccncc1 (stereo not drawn) [Compound 21, 1-[6-(4-chlorophenoxy)hexyl]-4-methyl-3-(4-pyridyl)-2-imidazolidinone]
showed antiviral activity: antiviral activity against enteroviruses, in particular enterovirus 71 (enterovirus 71; [1]) | antiviral activity against enteroviruses, in particular coxsackievirus A24 (coxsackievirus A24; [1]) | antiviral activity against enteroviruses, in particular coxsackievirus A9 (coxsackievirus A9; [1])

O=C1N(CCCCCOCCOc2ccc(Br)cc2)CCN1c1ccncc1 [Compound 47, 1-(5-[2-(4-bromophenoxy)ethoxy]pentyl)-3-(4-pyridyl)-2-imidazolidinone]
showed antiviral activity: antiviral activity against enteroviruses, in particular enterovirus 71 (enterovirus 71; [1]) | antiviral activity against enteroviruses, in particular coxsackievirus A24 (coxsackievirus A24; [1]) | antiviral activity against enteroviruses, in particular coxsackievirus A9 (coxsackievirus A9; [1])

O=C1N(CCCCCCCOc2ccc(Cl)cc2)CCN1c1cccnc1 [Compound 39, 1-[7-(4-chlorophenoxy)heptyl]-3-(3-pyridyl)-2-imidazolidinone]
showed antiviral activity: antiviral activity against enteroviruses, in particular enterovirus 71 (enterovirus 71; [1]) | antiviral activity against enteroviruses, in particular coxsackievirus A24 (coxsackievirus A24; [1]) | antiviral activity against enteroviruses, in particular coxsackievirus A9 (coxsackievirus A9; [1])

O=C1N(CCCCCCOc2ccc(Br)cc2)CCN1c1ccncc1 [Compound 17, 1-[6-(4-bromophenoxy)hexyl]-3-(4-pyridyl)-2-imidazolidinone]
showed antiviral activity: antiviral activity against enteroviruses, in particular enterovirus 71 (enterovirus 71; [1]) | antiviral activity against enteroviruses, in particular coxsackievirus A24 (coxsackievirus A24; [1]) | antiviral activity against enteroviruses, in particular coxsackievirus A9 (coxsackievirus A9; [1])

O=C1N(CCCCCCOc2ccc(Br)cc2)CCN1c1cccnc1 [Compound 33, 1-[6-(4-bromophenoxy)hexyl]-3-(3-pyridyl)-2-imidazolidinone]
showed antiviral activity: antiviral activity against enteroviruses, in particular enterovirus 71 (enterovirus 71; [1]) | antiviral activity against enteroviruses, in particular coxsackievirus A24 (coxsackievirus A24; [1]) | antiviral activity against enteroviruses, in particular coxsackievirus A9 (coxsackievirus A9; [1])

O=C1N(CCCCCOc2ccc(Cl)cc2)CCN1c1ccncc1 [Compound 28, 1-[5-(4-chlorophenoxy)pentyl]-3-(4-pyridyl)-2-imidazolidinone]
showed antiviral activity: antiviral activity against enteroviruses, in particular enterovirus 71 (enterovirus 71; [1]) | antiviral activity against enteroviruses, in particular coxsackievirus A24 (coxsackievirus A24; [1]) | antiviral activity against enteroviruses, in particular coxsackievirus A9 (coxsackievirus A9; [1])

O=C1N(CCCCCCOc2ccc(Cl)cc2)CCN1c1ccncc1 [Compound 24, 1-[6-(4-chlorophenoxy)hexyl]-3-(4-pyridyl)-2-imidazolidinone]
showed antiviral activity: antiviral activity against enteroviruses, in particular enterovirus 71 (enterovirus 71; [1]) | antiviral activity against enteroviruses, in particular coxsackievirus A24 (coxsackievirus A24; [1]) | antiviral activity against enteroviruses, in particular coxsackievirus A9 (coxsackievirus A9; [1])

O=C1N(CCCCCCOc2ccc(C(F)(F)F)cc2)CCN1c1ccncc1 [Compound 1, 1-(4-pyridyl)-3-(6-[4-(trifluoromethyl)phenoxy]hexyl)-2-imidazolidinone]
showed antiviral activity: antiviral activity against enteroviruses, in particular enterovirus 71 (enterovirus 71; [1]) | antiviral activity against enteroviruses, in particular coxsackievirus A24 (coxsackievirus A24; [1]) | antiviral activity against enteroviruses, in particular coxsackievirus A9 (coxsackievirus A9; [1])

O=C1N(CCCCOCCOc2ccc(Br)cc2)CCN1c1ccncc1 [Compound 34, 1-4-[2-(4-bromophenoxy)ethoxy]butyl-3-(4-pyridyl)-2-imidazolidinone]
showed antiviral activity: antiviral activity against enteroviruses, in particular enterovirus 71 (enterovirus 71; [1]) | antiviral activity against enteroviruses, in particular coxsackievirus A24 (coxsackievirus A24; [1]) | antiviral activity against enteroviruses, in particular coxsackievirus A9 (coxsackievirus A9; [1])

O=C1N(CCCCCCCOc2ccc(Br)cc2)CCN1c1ccncc1 [Compound 50, 1-[7-(4-bromophenoxy)heptyl]-3-(4-pyridyl)-2-imidazolidinone]
showed antiviral activity: antiviral activity against enteroviruses, in particular enterovirus 71 (enterovirus 71; [1]) | antiviral activity against enteroviruses, in particular coxsackievirus A24 (coxsackievirus A24; [1]) | antiviral activity against enteroviruses, in particular coxsackievirus A9 (coxsackievirus A9; [1])

O=C1N(CCCCCOc2ccc(Br)cc2)CCN1c1ccncc1 [Compound 52, 1-[5-(4-bromophenoxy)pentyl]-3-(4-pyridyl)-2-imidazolidinone]
showed antiviral activity: antiviral activity against enteroviruses, in particular enterovirus 71 (enterovirus 71; [1]) | antiviral activity against enteroviruses, in particular coxsackievirus A24 (coxsackievirus A24; [1]) | antiviral activity against enteroviruses, in particular coxsackievirus A9 (coxsackievirus A9; [1])

O=C1N(CCCCCCCOc2ccc(Cl)cc2)CCN1c1ccncc1 [Compound 2, 1-[7-(4-chlorophenoxy)heptyl]-3-(4-pyridyl)-2-imidazolidinone]
showed antiviral activity: antiviral activity against enteroviruses, in particular enterovirus 71 (enterovirus 71; [1]) | antiviral activity against enteroviruses, in particular coxsackievirus A24 (coxsackievirus A24; [1]) | antiviral activity against enteroviruses, in particular coxsackievirus A9 (coxsackievirus A9; [1])

COc1ccc(-c2ccc(OCCCCCN3CCN(c4ccncc4)C3=O)cc2)cc1 [Compound 74, 1-[5-(4′-methoxy-biphenyl-4-yloxy)pentyl]-3-pyridin-4-yl-imidazolidin-2-one]
showed antiviral activity: antiviral activity against enteroviruses, in particular enterovirus 71 (enterovirus 71; [1]) | antiviral activity against enteroviruses, in particular coxsackievirus A24 (coxsackievirus A24; [1]) | antiviral activity against enteroviruses, in particular coxsackievirus A9 (coxsackievirus A9; [1])

O=C1N(CCCCCOc2ccc(-c3ccc([N+](=O)[O-])cc3)cc2)CCN1c1ccncc1 [Compound 76, 1-[5-(4′-nitro-biphenyl-4-yloxy)pentyl]-3-pyridin-4-yl-imidazolidin-2-one]
showed antiviral activity: antiviral activity against enteroviruses, in particular enterovirus 71 (enterovirus 71; [1]) | antiviral activity against enteroviruses, in particular coxsackievirus A24 (coxsackievirus A24; [1]) | antiviral activity against enteroviruses, in particular coxsackievirus A9 (coxsackievirus A9; [1])
